{"source": "patent US20060069132A1", "about": "“Azolecarboxamide herbicides” (priority 2004, published 2006)", "key": {"[1]": {"tested_on": "blackgrass", "assay": "Test B postemergence herbicide test", "assay_type": "in vivo, Alopecurus myosuroides", "conditions": "postemergence", "how_it_was_run": "(§1)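 Formulated test chemicals went onto postemergence plants measuring 2 to 18 cm, at one to four leaves. For the paddy assay, species had reached two leaves. Scoring took place 13–15 days later by eye, relative to untreated plants, using 0 for no effect up to 100 for full control.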"}, "[2]": {"tested_on": "ducksalad", "assay": "Test B flooded paddy test", "assay_type": "in vivo, Heteranthera limosa", "conditions": "1000 g ai/ha, scale 0 to 100 (0 no effect, 100 complete control)", "how_it_was_run": "as §1"}, "[3]": {"tested_on": "velvetleaf", "assay": "Test B pre-/postemergence herbicide test", "assay_type": "in vivo, Abutilon theophrasti", "conditions": "for Velvetleaf plant response rating: scale 0 (no effect) to 100 (complete control)", "how_it_was_run": "(§2)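 Pre: seeds sown, then sprayed. Post: 1–4-leaf plants (2–18 cm) sprayed at the same time. Paddy: flooded, treated at 2-leaf stage. Formulation: non-phytotoxic solvent with surfactant. Greenhouse 13–15 days; visual 0–100 score relative to controls.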"}, "[4]": {"tested_on": "Surinam grass", "assay": "Test B pre-/postemergence herbicide test", "assay_type": "in vivo, Urochloa decumbens", "conditions": "for Surinam Grass plant response rating: scale 0 (no effect) to 100 (complete control)", "how_it_was_run": "as §2"}, "[5]": {"tested_on": "pigweed", "assay": "Test B pre-/postemergence herbicide test", "assay_type": "in vivo, Amaranthus retroflexus", "conditions": "for Pigweed plant response rating: scale 0 (no effect) to 100 (complete control)", "how_it_was_run": "as §2"}, "[6]": {"tested_on": "barnyardgrass", "assay": "Test B pre-/postemergence herbicide test", "assay_type": "in vivo, Echinochloa crus-galli", "conditions": "for Barnyardgrass plant response rating: postemergence", "how_it_was_run": "(§3)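 Plants compared with untreated controls 13–15 days post-treatment and given a visual 0–100 injury score. Applications: preemergence to seeds; postemergence at 1- to 4-leaf (2–18 cm); paddy species flooded, 2-leaf stage. Vehicle non-phytotoxic, surfactant included.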"}, "[7]": {"tested_on": "rice", "assay": "Test B flooded paddy test", "assay_type": "in vivo, Oryza sativa", "conditions": "1000 g ai/ha, scale 0 to 100 (0 no effect, 100 complete control)", "how_it_was_run": "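Plants grow to 1- to 4-leaf stage (2–18 cm) for postemergence spraying, or to 2-leaf stage for the paddy test. Formulated compound is applied. Greenhouse holding lasts 13–15 days. Response is scored visually relative to controls, 0 no effect to 100 complete control; a dash means no result.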"}, "[8]": {"tested_on": "giant foxtail", "assay": "Test B pre-/postemergence herbicide test", "assay_type": "in vivo, Setaria faberi", "conditions": "for Foxtail, Giant plant response rating: postemergence", "how_it_was_run": "as §2"}, "[9]": {"tested_on": "cocklebur", "assay": "Test B pre-/postemergence herbicide test", "assay_type": "in vivo, Xanthium strumarium", "conditions": "for Cocklebur plant response rating: postemergence", "how_it_was_run": "as §3"}, "[10]": {"tested_on": "morningglory", "assay": "Test B pre-/postemergence herbicide test", "assay_type": "in vivo, Ipomoea coccinea", "conditions": "for Morningglory plant response rating: scale 0 (no effect) to 100 (complete control)", "how_it_was_run": "as §3"}, "[11]": {"tested_on": "wild oat", "assay": "Test B postemergence herbicide test", "assay_type": "in vivo, Avena fatua", "conditions": "scale 0 (no effect) to 100 (complete control)", "how_it_was_run": "as §1"}, "[12]": {"tested_on": "lambsquarters", "assay": "Test B pre-/postemergence herbicide test", "assay_type": "in vivo, Chenopodium album", "conditions": "for Lambsquarters plant response rating: scale 0 (no effect) to 100 (complete control)", "how_it_was_run": "as §2"}, "[13]": {"tested_on": "small flower umbrella sedge", "assay": "Test B flooded paddy test", "assay_type": "in vivo, Cyperus difformis", "conditions": "1000 g ai/ha, scale 0 to 100 (0 no effect, 100 complete control)", "how_it_was_run": "as §1"}, "[14]": {"tested_on": "wheat", "assay": "Test B postemergence herbicide test", "assay_type": "in vivo, Triticum aestivum", "parameters": "key to Wheat plant response rating: 0 = no effect, 100 = complete control", "how_it_was_run": "as §1"}, "[15]": {"tested_on": "barnyardgrass", "assay": "Test B flooded paddy test", "assay_type": "in vivo, Echinochloa crus-galli", "conditions": "1000 g ai/ha, scale 0 to 100 (0 no effect, 100 complete control)", "how_it_was_run": "as §1"}, "[16]": {"conditions": "125 g ai/ha, visual rating, scale 0 (no effect) to 100 (complete control)"}, "[17]": {"conditions": "500 g ai/ha, scale 0 to 100, 0 is no effect, 100 is complete control"}, "[18]": {"conditions": "125 g ai/ha, 0 is no effect, 100 is complete control, preemergence"}, "[19]": {"conditions": "125 g ai/ha, visual rating, postemergence"}}}
{"compound": "C#CCNC(=O)c1cccc(NC(=O)c2nn(C(C)(C)C)nc2CC)c1", "note": "[Compound 380]", "values": [{"measurement": "Blackgrass plant response rating", "setting": "[1]; [16]", "value": 20}, {"measurement": "Blackgrass plant response rating", "setting": "[1]; [17]", "value": 40}, {"measurement": "Ducksalad plant response rating", "setting": "[2]", "value": 80}, {"measurement": "Plant response rating (0 to 100 scale), Velvetleaf", "setting": "[3]; [18]", "value": 10}, {"measurement": "Velvetleaf plant response rating", "setting": "[3]; [19]", "value": 10}, {"measurement": "Velvetleaf plant response rating", "setting": "[3]; Postemergence, 500 g ai/ha", "value": 30}, {"measurement": "Plant response rating (0 to 100 scale), Surinam Grass", "setting": "[4]; [18]", "value": 40}, {"measurement": "Surinam Grass plant response rating", "setting": "[4]; [19]", "value": 10}, {"measurement": "Surinam Grass plant response rating", "setting": "[4]; Postemergence, 500 g ai/ha", "value": 30}, {"measurement": "Plant response rating (0 to 100 scale), Pigweed", "setting": "[5]; [18]", "value": 100}, {"measurement": "Pigweed plant response rating", "setting": "[5]; [19]", "value": 50}, {"measurement": "Pigweed plant response rating", "setting": "[5]; Postemergence, 500 g ai/ha", "value": 80}, {"measurement": "Plant response rating (0 to 100 scale), Barnyardgrass", "setting": "[6]; [18]", "value": 70}, {"measurement": "Barnyardgrass plant response rating", "setting": "[6]; [16]", "value": 0}, {"measurement": "Barnyardgrass plant response rating", "setting": "[6]; [17]", "value": 0}, {"measurement": "Rice plant response rating", "setting": "[7]", "value": 70}, {"measurement": "Plant response rating (0 to 100 scale), Foxtail, Giant", "setting": "[8]; [18]", "value": 70}, {"measurement": "Foxtail, Giant plant response rating", "setting": "[8]; [16]", "value": 0}, {"measurement": "Foxtail, Giant plant response rating", "setting": "[8]; [17]", "value": 20}, {"measurement": "Plant response rating (0 to 100 scale), Cocklebur", "setting": "[9]; [18]", "value": 0}, {"measurement": "Cocklebur plant response rating", "setting": "[9]; [16]", "value": 20}, {"measurement": "Cocklebur plant response rating", "setting": "[9]; [17]", "value": 30}, {"measurement": "Plant response rating (0 to 100 scale), Morningglory", "setting": "[10]; [18]", "value": 10}, {"measurement": "Morningglory plant response rating", "setting": "[10]; [19]", "value": 20}, {"measurement": "Morningglory plant response rating", "setting": "[10]; Postemergence, 500 g ai/ha", "value": 60}, {"measurement": "Oat, Wild plant response rating", "setting": "[11]; [19]", "value": 10}, {"measurement": "Oat, Wild plant response rating", "setting": "[11]; Postemergence, 500 g ai/ha", "value": 30}, {"measurement": "Plant response rating (0 to 100 scale), Lambsquarters", "setting": "[12]; [18]", "value": 90}, {"measurement": "Lambsquarters plant response rating", "setting": "[12]; [19]", "value": 60}, {"measurement": "Lambsquarters plant response rating", "setting": "[12]; Postemergence, 500 g ai/ha", "value": 70}, {"measurement": "Sedge, Umbrella plant response rating", "setting": "[13]", "value": 70}, {"measurement": "Wheat plant response rating", "setting": "[14]; 125 g ai/ha, visual rating, scale 0 (no effect) to 100 (complete control), postemergence", "value": 10}, {"measurement": "Wheat plant response rating", "setting": "[14]; 500 g ai/ha, scale 0 to 100, 0 no effect, 100 complete control, preemergence", "value": 100}, {"measurement": "Wheat plant response rating", "setting": "[14]; Postemergence, 500 g ai/ha, scale 0 (no effect) to 100 (complete control)", "value": 10}, {"measurement": "Barnyardgrass plant response rating", "setting": "[15]", "value": 70}]}
